Laboratory results published in ChEMBL document CHEMBL1201862, “PubChem BioAssay data set” (2004).
The source made the active and inactive calls.

Experiments:
[1] = P. falciparum Dd2 growth inhibitors, dose response, SYBR Green, cherry-picked samples (AID 1159567); assay type: functional, cell-based
[2] = Luminescence Cell-Based Dose Retest to Confirm Inhibitors of Cancer Stem Cells. [Related pubchem assays (depositor defined):AID2717, AID2721]; assay type: functional; conditions: Homo sapiens
[3] = Luminescence Cell-Based Dose Response HTS to Identify Inhibitors of 5'UTR Stem-Loop Driven Prion Protein mRNA Translation in H4 Neuroglioblastoma Cells. [Related pubchem assays: 1827 (Project Summary), 1813 (Primary HTS)]; assay type: functional
[4] = inhibitors of firefly luciferase expression or activity, dose response, H4 neuroglioma cells, luminescence (AID 1990); assay type: functional, cell-based
[5] = inhibitors of SNCA 5'UTR-driven reporter translation, confirmation, H4 neuroglioma cells, luminescence (AID 1988); assay type: functional, cell-based
[6] = growth suppression of PTEN-null colon cells, dose response, cell-based, HCT116 PTEN knockout (AID 1047); assay type: functional;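 further: HCT116 colon tumor cells with PTEN knocked out; cells exposed to compound for 60 hours before readout; potency for loss of cell viability measured by luminescence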
[7] = growth suppression of beta-catenin-knockout colon cells, dose response, cell-based, HCT116, human colon tumor (AID 1045); assay type: functional;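 further: HCT116 colon tumor cells with beta catenin knocked out; cells exposed to compound for 60 hours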
[8] = target: T1, Corticotropin-releasing factor receptor 2/Corticotropin-releasing factor-binding protein (Homo sapiens, UniProt P24387+Q13324); experiment: activators of CRF receptor 2 with binding protein – uHTS hits, confirmation (AID 602473); assay type: functional; conditions: read-out: EC50_Mean
T1 sequence (Q13324 whole entry): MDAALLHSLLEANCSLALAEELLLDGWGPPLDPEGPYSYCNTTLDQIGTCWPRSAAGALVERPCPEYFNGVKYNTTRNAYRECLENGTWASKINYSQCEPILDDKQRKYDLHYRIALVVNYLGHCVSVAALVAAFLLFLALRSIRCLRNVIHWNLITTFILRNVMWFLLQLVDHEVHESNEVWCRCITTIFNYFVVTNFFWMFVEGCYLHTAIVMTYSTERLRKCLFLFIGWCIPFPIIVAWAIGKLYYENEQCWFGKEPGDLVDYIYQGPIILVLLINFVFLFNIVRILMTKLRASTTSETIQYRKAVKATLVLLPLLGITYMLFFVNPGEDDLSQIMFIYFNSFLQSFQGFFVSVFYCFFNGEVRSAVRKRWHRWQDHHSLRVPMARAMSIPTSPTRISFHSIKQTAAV
T1 sequence (P24387 whole entry): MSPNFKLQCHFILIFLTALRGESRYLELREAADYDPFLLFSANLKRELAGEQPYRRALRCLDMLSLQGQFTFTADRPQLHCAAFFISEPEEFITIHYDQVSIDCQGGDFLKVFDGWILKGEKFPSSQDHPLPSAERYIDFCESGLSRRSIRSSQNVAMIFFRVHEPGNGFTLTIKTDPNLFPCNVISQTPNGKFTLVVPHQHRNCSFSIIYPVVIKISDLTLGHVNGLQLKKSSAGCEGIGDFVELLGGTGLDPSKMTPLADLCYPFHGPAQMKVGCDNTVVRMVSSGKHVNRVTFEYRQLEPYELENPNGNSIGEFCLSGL

[9] = target: T1, Corticotropin-releasing factor receptor 2/Corticotropin-releasing factor-binding protein; experiment: Dose Response confirmation of uHTS hits for small molecule antagonists of the CRF-binding protein and CRF-R2 receptor complex.; assay type: functional; conditions: read-out: IC50_Mean
[10] = target: Large T antigen (Simian virus 40, UniProt P03070); assay type: functional, Betapolyomavirus macacae;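 further: Confirmatory-stage PubChem screen for compounds that inhibit SV40 T antigen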
[11] = system: INS1; experiment: beta cell apoptosis inhibitors, cytokine rescue, dose response, luminescence, retest (AID 449756); assay type: functional, cell-based; conditions: Rattus norvegicus;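 further: cell death triggered by IL-1 beta plus TNF-alpha plus IFN-gamma mixture; protective hits raise ATP signal compared with cytokine alone wells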
[12] = target: T2, Rac GTPase-activating protein 1 (Homo sapiens, UniProt Q9H0H5); experiment: MgcRacGAP GTPase-activating activity inhibitors, confirmation, biochemical, ADP Hunter fluorescence, primary and confirmatory (AID 624330); assay type: functional
T2 sequence (Q9H0H5 whole entry): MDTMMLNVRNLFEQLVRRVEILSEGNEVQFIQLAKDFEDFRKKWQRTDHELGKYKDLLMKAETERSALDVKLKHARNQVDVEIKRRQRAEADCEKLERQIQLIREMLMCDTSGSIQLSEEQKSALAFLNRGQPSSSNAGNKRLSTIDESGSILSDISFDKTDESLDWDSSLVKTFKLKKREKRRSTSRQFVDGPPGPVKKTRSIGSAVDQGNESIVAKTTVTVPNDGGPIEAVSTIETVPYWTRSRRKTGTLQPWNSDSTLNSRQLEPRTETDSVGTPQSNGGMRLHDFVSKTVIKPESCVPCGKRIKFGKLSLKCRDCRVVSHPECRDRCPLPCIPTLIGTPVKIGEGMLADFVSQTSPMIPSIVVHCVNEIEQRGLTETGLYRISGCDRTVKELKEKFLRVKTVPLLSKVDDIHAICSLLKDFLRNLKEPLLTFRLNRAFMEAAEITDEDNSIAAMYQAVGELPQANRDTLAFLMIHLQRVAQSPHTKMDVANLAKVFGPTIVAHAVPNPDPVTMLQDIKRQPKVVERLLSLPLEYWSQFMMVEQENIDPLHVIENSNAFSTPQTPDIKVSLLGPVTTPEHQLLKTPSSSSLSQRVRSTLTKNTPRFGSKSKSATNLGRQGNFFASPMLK

[13] = Luminescence Cell-Based Dose Response HTS to Identify Activators of Luciferase Translation or Activity in H4 […] Cells. [Related pubchem assays: 1829 (Project Summary), 1814 (Primary HTS)]; assay type: functional
[14] = Luminescence Cell-Based Dose Confirmation HTS to Identify Activators of 5'UTR Stem-Loop Driven Alpha-Synuclein mRNA Translation in H4 Neuroglioblastoma Cells. [Related pubchem assays: 1829 (Project Summary), 1814 (Primary HTS)]; assay type: functional
[15] = system: H4; experiment: Luminescence Cell-Based Dose Response HTS to Identify Activators of 5'UTR Stem-Loop Driven Prion Protein mRNA Translation in H4 Neuroglioblastoma Cells. [Related pubchem assays: 1829 (Project Summary), 1814 (Primary HTS)]; assay type: functional; conditions: Homo sapiens
[16] = target: T3, Heat shock factor protein 1 (Mus musculus, UniProt P38532); experiment: inhibition of MG132-induced HSE-luciferase signal, confirmation, cell-based, NIH3T3, luminescence, dose retest (AID 2382); assay type: functional;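 further: NIH3T3 fibroblasts with HSF1-driven luciferase reporter stressed by proteasome inhibitor MG132; luminescence from HSF1-driven luciferase expression after 8 hours of MG132 stress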
T3 sequence (P38532 whole entry): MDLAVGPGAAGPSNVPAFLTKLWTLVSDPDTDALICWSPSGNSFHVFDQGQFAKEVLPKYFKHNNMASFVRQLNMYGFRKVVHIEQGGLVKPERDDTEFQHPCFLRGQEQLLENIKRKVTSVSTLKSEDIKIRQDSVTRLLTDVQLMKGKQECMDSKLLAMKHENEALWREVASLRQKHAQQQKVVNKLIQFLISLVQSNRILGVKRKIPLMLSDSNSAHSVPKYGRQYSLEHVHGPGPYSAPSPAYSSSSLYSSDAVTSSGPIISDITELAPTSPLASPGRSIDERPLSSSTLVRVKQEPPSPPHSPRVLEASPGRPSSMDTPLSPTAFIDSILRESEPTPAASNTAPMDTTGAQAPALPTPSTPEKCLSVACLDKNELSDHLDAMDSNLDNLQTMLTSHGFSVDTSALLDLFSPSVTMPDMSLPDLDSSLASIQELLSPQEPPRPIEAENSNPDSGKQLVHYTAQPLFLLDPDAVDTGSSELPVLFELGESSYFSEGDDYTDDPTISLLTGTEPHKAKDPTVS

[17] = Shn3 3'UTR reporter inhibitors, dose response, cell-based, Clone20 osteoblasts, firefly luciferase, cherry-picked (AID 624132); assay type: functional;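 further: firefly luciferase luminescence from reporter carrying the Shn3 3'UTR in osteoblasts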
[18] = target: Cytochrome P450 2C9 (Homo sapiens, UniProt P11712)
[19] = system: Streptococcus; experiment: Group A Streptococcus viability loss, dose response, counter-screen for streptokinase expression inhibitor project, luminescence, BacTiterGlo (AID 1915); assay type: functional, organism-based;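 further: potency for reduction of bacterial viability or growth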
[20] = system: Streptococcus sp. 'group A'; experiment: growth inhibition of control SK(-) GAS strain, dose response, counter-screen for streptokinase expression inhibitor project, luminescence, kanamycin, BacTiterGlo, confirmation (AID 1900); assay type: functional, organism-based
[21] = target: T4, Streptokinase A (Streptococcus pyogenes serotype M1, UniProt P10520); experiment: S. pyogenes streptokinase expression inhibitors, potency, dose response, plasminogen activation absorbance, OD405 (AID 1914); assay type: functional, Streptococcus pyogenes M1 GAS;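 further: secreted streptokinase activity via plasminogen activation per viability signal from cell pellet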
T4 sequence (P10520 whole entry): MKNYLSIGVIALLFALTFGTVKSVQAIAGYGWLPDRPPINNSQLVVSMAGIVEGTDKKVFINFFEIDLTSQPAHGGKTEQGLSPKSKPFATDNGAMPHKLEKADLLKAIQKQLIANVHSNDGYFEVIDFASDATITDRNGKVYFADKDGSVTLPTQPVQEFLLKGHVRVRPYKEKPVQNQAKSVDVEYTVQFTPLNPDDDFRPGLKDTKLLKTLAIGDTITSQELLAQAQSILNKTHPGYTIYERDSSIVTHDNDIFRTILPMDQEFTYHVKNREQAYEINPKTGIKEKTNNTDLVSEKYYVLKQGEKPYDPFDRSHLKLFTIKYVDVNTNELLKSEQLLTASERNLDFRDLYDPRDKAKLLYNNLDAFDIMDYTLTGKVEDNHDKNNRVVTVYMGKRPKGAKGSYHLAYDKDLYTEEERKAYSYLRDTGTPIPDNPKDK

Large T antigen, sequence (P03070 whole entry): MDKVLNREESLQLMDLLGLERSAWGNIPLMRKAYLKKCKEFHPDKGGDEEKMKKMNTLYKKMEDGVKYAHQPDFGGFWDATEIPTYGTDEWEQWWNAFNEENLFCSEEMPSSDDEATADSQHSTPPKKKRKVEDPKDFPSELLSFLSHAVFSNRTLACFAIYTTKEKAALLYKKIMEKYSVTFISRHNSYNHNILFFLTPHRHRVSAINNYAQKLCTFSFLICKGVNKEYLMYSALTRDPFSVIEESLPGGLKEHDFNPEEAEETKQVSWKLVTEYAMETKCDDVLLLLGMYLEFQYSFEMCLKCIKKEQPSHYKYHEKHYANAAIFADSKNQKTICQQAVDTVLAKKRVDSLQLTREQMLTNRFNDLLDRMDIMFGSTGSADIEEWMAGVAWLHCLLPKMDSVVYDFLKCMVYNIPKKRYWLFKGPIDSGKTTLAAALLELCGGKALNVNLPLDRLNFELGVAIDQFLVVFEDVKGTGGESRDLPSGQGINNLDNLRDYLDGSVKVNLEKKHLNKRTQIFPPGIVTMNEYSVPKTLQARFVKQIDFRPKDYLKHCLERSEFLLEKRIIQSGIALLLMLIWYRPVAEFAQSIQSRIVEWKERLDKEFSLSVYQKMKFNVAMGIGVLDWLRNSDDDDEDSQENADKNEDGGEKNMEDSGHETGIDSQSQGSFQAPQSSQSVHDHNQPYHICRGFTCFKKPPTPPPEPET
Cytochrome P450 2C9, sequence (P11712 whole entry): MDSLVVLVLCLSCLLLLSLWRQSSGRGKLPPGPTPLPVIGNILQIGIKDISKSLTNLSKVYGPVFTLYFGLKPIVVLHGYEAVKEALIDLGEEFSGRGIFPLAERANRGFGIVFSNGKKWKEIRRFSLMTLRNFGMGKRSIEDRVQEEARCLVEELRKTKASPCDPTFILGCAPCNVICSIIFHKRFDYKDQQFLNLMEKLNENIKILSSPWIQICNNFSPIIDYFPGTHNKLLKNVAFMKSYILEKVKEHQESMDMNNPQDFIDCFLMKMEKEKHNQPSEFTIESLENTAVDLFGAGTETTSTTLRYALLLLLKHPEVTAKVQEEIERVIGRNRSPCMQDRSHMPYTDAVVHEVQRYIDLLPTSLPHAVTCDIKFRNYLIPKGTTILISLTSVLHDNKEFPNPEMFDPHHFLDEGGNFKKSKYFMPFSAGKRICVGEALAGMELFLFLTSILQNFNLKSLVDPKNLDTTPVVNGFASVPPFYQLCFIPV

COc1ccc2c3c([nH]c2c1)[C@H](CO)N(Cc1ccccc1Cl)CC31CN(C(=O)C2CC2)C1
AC50 [1]: 5.65 µM (active)

O=C(Nc1nccs1)c1ccc(COc2ccccc2Br)o1
AC50 [2]: 3.14 µM (active)

COc1ccc(C2=Nn3c(nnc3-c3ccncc3)SC2)cc1OC
EC50 [3]: 14.2 µM (active)
EC50 [4]: 12.4 µM (active)
EC50 [5]: 50.8 µM (active)
EC50 [6]: 19.7 µM (active)
EC50 [7]: 336 µM (active)

C=CCOc1cccc(CNc2ccc3[nH]c(O)nc3c2)c1
EC50 [8]: > 53 µM (inactive)
IC50 [9]: > 47.1 µM (inactive)
IC50 [10]: 14.4 µM (active)

COc1ccc2c3c([nH]c2c1)[C@@H](CO)N(Cc1ccccc1F)CC31CN(C(=O)C2CCC2)C1
AC50 [1]: 7.2 µM (active)

CCCCCCSc1cccc(-c2nc3ccccn3c2NCc2ccccc2)c1
AC50 [11]: 7.57 µM (active)
AC50 [2]: 6.43 µM (active)

C[C@@H]1CN([C@@H](C)CO)C(=O)c2c(c3ccccc3n2C)-c2ccccc2CO[C@H]1CN(C)Cc1cccc(C(F)(F)F)c1
AC50 [1]: 3.05 µM (active)

Nc1ccccc1/N=C/c1ccc(-c2cccc(Cl)c2)o1
AC50 [2]: 3.68 µM (active)

COc1cc(/C=C(\C#N)C(=O)N2CCCCC2)ccc1O
IC50 [10]: 13 µM (active)

O=C(CSCc1cccc(Br)c1)N/N=C/c1ccc2c(c1)OCO2
AC50 [2]: 3 µM (active)

COc1cc(SC#N)ccc1/N=C/c1c(C)nn(-c2cccc3ccccc23)c1O
IC50 [10]: 14.1 µM (active)
EC50 [7]: 93.7 µM (active)

O=C(Cc1ccncc1)N1CC[C@@H]2[C@@H](CO)Nc3ccc(-c4cccc(F)c4)cc3[C@@H]21
AC50 [1]: 3.43 µM (active)

COc1cc(/C=N/NC(=O)C2=NNC(=O)C2C)ccc1O (configuration not stated)
IC50 [12]: 76.3 µM (active)
IC50 [10]: 26.7 µM (active)

O=C1C2C3C=CC(C4CC34)C2C(=O)N1/N=C/c1ccc(-c2ccc(F)cc2[N+](=O)[O-])o1 (configuration not stated)
AC50 [2]: 1.08 µM (active)

CCCc1ccc(-c2cc(NC(=O)CSc3n[nH]c(N)n3)n(-c3ccccc3)n2)cc1
EC50 [13]: 6.51 µM (active)
EC50 [14]: 7.46 µM (active)
EC50 [15]: 53.5 µM (active)
AC50 [2]: 4.18 µM (active)

CCCCn1c(-c2cccc(C)c2)nc2cc3nc(O)c(C(C)C)nc3cc21
AC50 [2]: 6.63 µM (active)

O=c1c(Cl)c(NCc2ccccc2Cl)cnn1C12CC3CC(CC(C3)C1)C2
AC50 [2]: 0.508 µM (active)

Oc1ccc(N2CCN(C(=S)NCCc3ccccc3)CC2)cc1
IC50 [12]: 26.1 µM (active)
IC50 [10]: 8.73 µM (active)

Cc1cc(SCC(=O)N/N=C/c2ccc(O)c(O)c2)nc2ccccc12
IC50 [10]: 6.59 µM (active)

Cc1cc(NC(=O)c2cc(-c3ccncc3)nc3ccccc23)ccc1Br
AC50 [2]: 4.23 µM (active)

CCOc1ccc(NCc2nnc(SCC(=O)Nc3cc(C)on3)n2-c2ccc(OC)cc2)cc1
IC50 [10]: 30.1 µM (active)
EC50 [16]: > 195 µM (not active)

CNS(=O)(=O)c1cccc(C(=O)OCc2cc(C(C)=O)ccc2OC)c1
AC50 [17]: 11.2 µM (active)

O=C(c1ccc([N+](=O)[O-])cc1)N1CCN(c2cccc3[nH]ccc23)CC1
IC50 [10]: 25.9 µM (active)

CCCc1cc(-c2[nH]nc(C(=O)OCC)c2-c2cscn2)c(O)cc1O
IC50 [10]: 23.4 µM (active)

NNC(=O)C(=O)Nc1ccc(O)cc1
IC50 [10]: 9.75 µM (active)

COC(=O)C1=C(c2cccc(C#N)c2)C[C@@H]2CC[C@H]1N2C(=O)NC1Cc2ccccc2C1
AC50 [2]: > 195 µM (inactive)

C[C@@H]1CN([C@@H](C)CO)C(=O)c2c(c3ccccc3n2C)-c2ccccc2CO[C@H]1CN(C)C(=O)Nc1ccc(-c2ccccc2)cc1
AC50 [1]: 3.77 µM (active)

CCCC(=O)N1CCC2(CC1)CN(Cc1cccnc1)[C@@H](CO)c1[nH]c3cc(OC)ccc3c12
AC50 [1]: 5.19 µM (active)

C/C=C/c1ccc([C@@H]2[C@@H](CO)N(CC3CCCC3)C23CN(S(=O)(=O)CC)C3)cc1
AC50 [1]: 4.7 µM (active)

Cc1ccc(CNc2ccc3c(c2)ncn3C(C)C)cc1
IC50 [10]: 42.6 µM (active)

Nc1ccc(O)c(C(=O)O)c1 [MESALAMINE]
AC50 [18]: 12.6 µM (inconclusive)
IC50 [10]: 19.1 µM (active)

C[C@H]1CN([C@@H](C)CO)C(=O)c2cc(NC(=O)Cc3cn(C)c4ccccc34)ccc2O[C@H]1CN(C)S(=O)(=O)c1cccs1
AC50 [1]: 6.48 µM (active)

CC(C)(C)[C@@H]1CCC(=O)N(CC[C@H](Sc2ccccc2)c2ccccc2)CC1
EC50 [19]: 5.87 µM (active)
EC50 [20]: 6.49 µM (active)
EC50 [21]: > 150 µM (not active)
AC50 [2]: 3.92 µM (active)

CN(CC(=O)Nc1ccc(Cl)c(Cl)c1)C(=O)C12CC3CC(CC(C3)C1)C2
AC50 [2]: 5.44 µM (active)
